The source of these data is patent US20250127918A1, “SITE-SELECTIVE CONJUGATION OF A PHARMACEUTICAL AGENT TO AN ANTIBODY USING AN AFFINITY PEPTIDE” (priority 2023, published 2025).

Common to all, as to format: in vivo, mouse
Data set [1] concerns WT Swiss mice. The data set can be described thus: Toxicity / safety profile of GLP1 conjugates in WT Swiss mice. The method, then:
All animal experiments were performed under an MIT institute approved IACUC protocol following federal, state, and local guidelines for the care and use of animals (protocol number #0821-058-24). The studies were performed on 30-35 g (5-8 weeks-old) healthy female Swiss mice, purchased from The Jackson Laboratory (MA, USA). Mice were housed with free access to food and water ad libitum unless stated otherwise for the need of the experiment. […] Intraperitoneal injections (IP) were performed on vigil mice, in the lower right abdominal quadrant. For blood collection, mice were either punctured in the heart (terminal procedure), or gently pressed at the tail following tail pricks (vigil). […] The animals were sacrificed by CO2 inhalation followed by cervical dislocation. All compounds injected in mice were either USP grade, sterile, or filtered using 0.22 μm.
(§1) Six hours before the Ip-GTT, the mice were fasted by removing the food, the enrichment, and by placing them in a new cage to avoid coprophagy. Access to water was, however kept free and ad libitum for the entire experiment. Five minutes before the Ip-GTT, basal glycemia was measured by taking a small drop of blood using tail pricks.
In the other cohorts, 2a,3a was SC administered following either 10 mg/kg (25 nmol), 30 mg/kg (75 nmol), or three injections of 10 mg/kg, 1 per week for 3 weeks (30 mg/kg total, 75 nmol total).
(§2) All animal experiments were performed under an MIT institute approved IACUC protocol following federal, state, and local guidelines for the care and use of animals (protocol number #0821-058-24). The studies were performed either on 35-45 g (12-16 weeks-old) wild-type female Swiss mice, 25-30 g (14-20 weeks-old) male and female C57BL/6J mice, or 55-70 g (16 weeks-old) male and female obese Lep^ob/ob mice, all purchased from The Jackson Laboratory (MA, USA). Mice were housed with free access to normal food diet and water ad libitum unless stated otherwise for the need of the experiment. […] Intraperitoneal injections (IP) were performed on non-anesthetized mice, in the lower right abdominal quadrant. Blood collection for the ELISA assays and biodistributions was performed as a terminal procedure by heart puncture immediately after the sacrifice. For Ip-GTT and Ip-ITT mice were restrained and gently pressed at the tail following tail pricks. The animals were sacrificed by CO2 inhalation followed by cervical dislocation. All compounds injected in mice were either USP grade, sterile, or filtered using 0.22 μm.

The test system of another data set is Lep^ob/ob mice. In words: Safety profile of GLP-1a conjugates in Lep^ob/ob mice. Conditions: 10 mg/kg; for Number of mice showing significant aggressiveness / Number of mice with Piloerection, Moderate: cohort of 3 mice. As for the experimental part: In Lep^ob/ob obese mice, two routes were assessed for the 10 mg/kg dose: SC and IP (Table 21). […] Investigations about the PD of 2a,3a following SC injection of 10 mg/kg were pursued in both mice models.
as §2

The test system of data set [2] is WT Swiss mice. The data set can be described thus: Intraperitoneal glucose tolerance test (Ip-GTT) in WT Swiss mice. Conditions: Ip-GTT after injection. The method, then: as §1

Structures are written as SMILES.

As to `CC[C@H](C)[C@H](NC(=O)[C@H](Cc1ccccc1)NC(=O)[C@H](CCC(=O)O)NC(=O)[C@H](CCCCNC(=O)COCCOCCNC(=O)COCCOCCNC(=O)CC[C@H](NC(=O)CCCCCCCCCCCCCCCCC(=O)O)C(=O)O)NC(=O)[C@H](C)NC(=O)[C@H](C)NC(=O)[C@H](CCC(N)=O)NC(=O)CNC(=O)[C@H](CCC(=O)O)NC(=O)[C@H](CC(C)C)NC(=O)[C@H](Cc1ccc(O)cc1)NC(=O)[C@H](CO)NC(=O)[C@H](CO)NC(=O)[C@@H](NC(=O)[C@H](CC(=O)O)NC(=O)[C@H](CO)NC(=O)[C@@H](NC(=O)[C@H](Cc1ccccc1)NC(=O)[C@@H](NC(=O)CNC(=O)[C@H](CCC(=O)O)NC(=O)C(C)(C)NC(=O)[C@@H](N)Cc1cnc[nH]1)[C@@H](C)O)[C@@H](C)O)C(C)C)C(=O)N[C@@H](C)C(=O)N[C@@H](Cc1c[nH]c2ccccc12)C(=O)N[C@@H](CC(C)C)C(=O)N[C@H](C(=O)N[C@@H](CCCNC(=N)N)C(=O)NCC(=O)N[C@@H](CCCNC(=N)N)C(=O)NCC(=O)O)C(C)C` [Semaglutide], in the data set with WT Swiss mice [1] (SC 0.5 mg/kg, cohort of 5 mice), the “Number of mice with Aggressiveness” value was 0. Moreover, the “Number of mice with Piloerection Mild” value was 0 with WT Swiss mice [1] (SC 0.5 mg/kg, cohort of 5 mice); 0 in the data set with WT Swiss mice [1] (SC 3 mg/kg, cohort of 5 mice); 0 in the data set with WT Swiss mice [1] (SC 10 mg/kg, cohort of 15 mice). For the same molecule, the “Number of mice with Piloerection Severe” value in the data set with WT Swiss mice [1] (SC 0.5 mg/kg, cohort of 5 mice) came out at 0. For the same molecule, the “Number of mice with Piloerection, Moderate” value with WT Swiss mice [1] (SC 0.5 mg/kg, cohort of 5 mice) is reported as 0; in the data set with WT Swiss mice [1] (SC 10 mg/kg, cohort of 15 mice, time per cell footnote (¤ over 48 h)), 0; in the data set with Lep^ob/ob mice (female Lep^ob/ob mice, SC) it was 3; in the data set on Lep^ob/ob mice (male Lep^ob/ob mice, SC), 3. Also, the “Tolerability, both routes (SC and IP)” value with Lep^ob/ob mice (Lep^ob/ob obese mice) is “significantly impact the mice behavior and induce hypoglycemia”. Also, the “Mean fasting blood glucose” value in the data set on Lep^ob/ob mice (female Lep^ob/ob mice, IP) worked out at 104 ± 6 mg/dL; with Lep^ob/ob mice (female Lep^ob/ob mice, SC), 97 ± 7 mg/dL; with Lep^ob/ob mice (male Lep^ob/ob mice, IP), 111 ± 14 mg/dL; in the data set with Lep^ob/ob mice (male Lep^ob/ob mice, SC), 75 ± 12 mg/dL. In addition, the “Number of mice showing significant aggressiveness” value is listed as 3 in the data set on Lep^ob/ob mice (female Lep^ob/ob mice, IP); 3 with Lep^ob/ob mice (female Lep^ob/ob mice, SC); 3 in the data set on Lep^ob/ob mice (male Lep^ob/ob mice, IP); 3 with Lep^ob/ob mice (male Lep^ob/ob mice, SC). In the data set on WT Swiss mice [2], the Hypoglycemia result is recorded as “induce hypoglycemia”.
